In US12446495B2, “Injection systems, injection tools and methods for same” (Invaio Sciences International GmbH, priority 2018, dated 2025):

Assay: Distribution of test substance within plants after trunk injection
Assay type: in vivo
Conditions: solution comprising 2% Brilliant Blue E 133 injected; trees felled and cut in pieces; over 24 hours
Text: The trunk injection devices have been tested regarding the use with different types of trunks, the speed of absorption, distribution of product within the plant, and the continuing usage of an injection device within a trunk. The injection devices have been tested with trunks with a diameter between 2 cm and 30 cm. The tests have been conducted with box, vine, hazelnut, walnut, maple, beach and oak. Further, trees such as date palm, citrus tree, and banana tree would be suitable as well.′ Speed of absorption is influenced by factors such as weather, season, time of day and injection pressure. Within tests conducted under ideal conditions, an injection pressure of 2.5 bars, and 10 ml of test substance, absorption times below 2 minutes have been achieved.
Distribution within plants has been tested injecting a solution comprising 2% Brilliant Blue E 133 (CAS reg. No. 3844-45-9.) as a test substance. Trees have afterwards been felled and cut in pieces to analyze the distribution of the test substance over time within the plant. The test substance did typically distribute over 5 meters within the stem over 24 hours.

Compound: CCN(Cc1cccc(S(=O)(=O)[O-])c1)c1ccc(C(=C2C=CC(=[N+](CC)Cc3cccc(S(=O)(=O)[O-])c3)C=C2)c2ccccc2S(=O)(=O)[O-])cc1.[Na+].[Na+] [Brilliant Blue E 133]
- distribution of the test substance within the stem: ~5 meters
